In PubChem BioAssay (NCI):
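Here, GI50 denotes the concentration required for 50% inhibition of growth. TGI denotes the concentration required for complete inhibition of growth.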

Legend:
Assay in all cases: DTP human tumour cell line panel, 384-well format
786-0 renal = test system: 786-0 renal
A498 renal = test system: A498 renal
A549 NSCLC = test system: A549 NSCLC
ACHN renal = test system: ACHN renal
BT-549 breast = test system: BT-549 breast
CAKI-1 renal = test system: CAKI-1 renal
CCRF-CEM leukemia = test system: CCRF-CEM leukemia
COLO 205 colon = test system: COLO 205 colon
DU-145 prostate = test system: DU-145 prostate
EKVX NSCLC = test system: EKVX NSCLC
HCC-2998 colon = test system: HCC-2998 colon
HCT-116 colon = test system: HCT-116 colon
HCT-15 colon = test system: HCT-15 colon
HL-60(TB) leukemia = test system: HL-60(TB) leukemia
HOP-62 NSCLC = test system: HOP-62 NSCLC
HOP-92 NSCLC = test system: HOP-92 NSCLC
HS 578T breast = test system: HS 578T breast
HT29 colon = test system: HT29 colon
IGROV1 ovarian = test system: IGROV1 ovarian
K-562 leukemia = test system: K-562 leukemia
KM12 colon = test system: KM12 colon
LOX IMVI melanoma = test system: LOX IMVI melanoma
M14 melanoma = test system: M14 melanoma
MCF7 breast = test system: MCF7 breast
MDA-MB-231 breast = test system: MDA-MB-231 breast
MDA-MB-435 melanoma = test system: MDA-MB-435 melanoma
MDA-MB-468 breast = test system: MDA-MB-468 breast
MOLT-4 leukemia = test system: MOLT-4 leukemia
NCI-H226 lung = test system: NCI-H226 lung
NCI-H23 lung = test system: NCI-H23 lung
NCI-H322M lung = test system: NCI-H322M lung
NCI-H460 NSCLC = test system: NCI-H460 NSCLC
NCI-H522 lung = test system: NCI-H522 lung
NCI/ADR-RES ovarian = test system: NCI/ADR-RES ovarian
OVCAR-3 ovarian = test system: OVCAR-3 ovarian
OVCAR-4 ovarian = test system: OVCAR-4 ovarian
OVCAR-5 ovarian = test system: OVCAR-5 ovarian
OVCAR-8 ovarian = test system: OVCAR-8 ovarian
PC-3 prostate = test system: PC-3 prostate
RPMI-8226 leukemia = test system: RPMI-8226 leukemia
RXF 393 renal = test system: RXF 393 renal
SF-268 CNS = test system: SF-268 CNS
SF-295 CNS = test system: SF-295 CNS
SF-539 CNS = test system: SF-539 CNS
SK-MEL-2 melanoma = test system: SK-MEL-2 melanoma
SK-MEL-28 melanoma = test system: SK-MEL-28 melanoma
SK-MEL-5 melanoma = test system: SK-MEL-5 melanoma
SN12C renal = test system: SN12C renal
SNB-19 CNS = test system: SNB-19 CNS
SNB-75 CNS = test system: SNB-75 CNS
SW-620 colon = test system: SW-620 colon
T-47D breast = test system: T-47D breast
TK-10 renal = test system: TK-10 renal
U251 glioblastoma = test system: U251 glioblastoma
UACC-257 melanoma = test system: UACC-257 melanoma
UACC-62 melanoma = test system: UACC-62 melanoma
UO-31 renal = test system: UO-31 renal

With `Nc1cc(C(F)F)c(-c2nc(N3[C@@H]4CC[C@H]3COC4)nc(N3[C@@H]4CC[C@H]3COC4)n2)cn1` the GI50 ([…]-0 renal) was 639 nM, the TGI (786-0 renal) was > 100000 nM and the GI50 (A498 renal) was 89.9 nM. For the same molecule, the TGI (A498 renal) was 3630 nM, the GI50 (A549 NSCLC) was 338 nM and the TGI (A549 NSCLC) was > 100000 nM. For the same molecule, the GI50 (ACHN renal) was 426 nM, the TGI (ACHN renal) was > 100000 nM and the GI50 (BT-549 breast) was 261 nM. For the same molecule, the TGI (BT-549 breast) was 2640 nM, the GI50 (CAKI-1 renal) was 311 nM and the TGI (CAKI-1 renal) was 3670 nM. It also gave a GI50 (CCRF-CEM leukemia) of 301 nM, a TGI (CCRF-CEM leukemia) of 38000 nM and a GI50 (COLO 205 colon) of 368 nM. For the same molecule, the TGI (COLO 205 colon) was > 100000 nM, the GI50 (DU-145 prostate) was 525 nM and the TGI (DU-145 prostate) was > 100000 nM. For the same molecule, the GI50 (EKVX NSCLC) was 345 nM, the TGI (EKVX NSCLC) was 12000 nM and the GI50 (HCC-2998 colon) was 407 nM. For the same molecule, the TGI (HCC-2998 colon) was > 100000 nM, the GI50 (HCT-116 colon) was 1440 nM and the TGI (HCT-116 colon) was > 100000 nM. For the same molecule, the GI50 (HCT-15 colon) was 419 nM, the TGI (HCT-15 colon) was > 100000 nM and the GI50 (HL-60(TB) leukemia) was 2530 nM. The TGI (HL-60(TB) leukemia) was > 100000 nM, the GI50 (HOP-62 NSCLC) was 497 nM and the TGI (HOP-62 NSCLC) was 7530 nM. The GI50 (HOP-92 NSCLC) was 560 nM, the TGI (HOP-92 NSCLC) was > 100000 nM and the GI50 (HS 578T breast) was 138 nM. For the same molecule, the TGI (HS 578T breast) was 687 nM, the GI50 (HT29 colon) was 4210 nM and the TGI (HT29 colon) was > 100000 nM. It also gave a GI50 (IGROV1 ovarian) of 188 nM, a TGI (IGROV1 ovarian) of 980 nM and a GI50 (K-562 leukemia) of 523 nM. For the same molecule, the TGI (K-562 leukemia) was > 100000 nM, the GI50 (KM12 colon) was 320 nM and the TGI (KM12 colon) was > 100000 nM. For the same molecule, the GI50 (LOX IMVI melanoma) was 464 nM, the TGI (LOX IMVI melanoma) was > 100000 nM and the GI50 (M14 melanoma) was 358 nM. The TGI (M14 melanoma) was > 100000 nM, the GI50 (MCF7 breast) was 143 nM and the TGI (MCF7 breast) was > 100000 nM. The GI50 (MDA-MB-231 breast) was 338 nM, the TGI (MDA-MB-231 breast) was > 100000 nM and the GI50 (MDA-MB-435 melanoma) was 499 nM. The TGI (MDA-MB-435 melanoma) was 32200 nM, the GI50 (MDA-MB-468 breast) was 201 nM and the TGI (MDA-MB-468 breast) was 980 nM. The GI50 (MOLT-4 leukemia) was 158 nM, the TGI (MOLT-4 leukemia) was 9690 nM and the GI50 (NCI-H226 lung) was 196 nM. The TGI (NCI-H226 lung) was 2840 nM, the GI50 (NCI-H23 lung) was 2180 nM and the TGI (NCI-H23 lung) was > 100000 nM. For the same molecule, the GI50 (NCI-H322M lung) was 398 nM, the TGI (NCI-H322M lung) was > 100000 nM and the GI50 (NCI-H460 NSCLC) was 105 nM. For the same molecule, the TGI (NCI-H460 NSCLC) was > 100000 nM, the GI50 (NCI-H522 lung) was 183 nM and the TGI (NCI-H522 lung) was 7620 nM. For the same molecule, the GI50 (NCI/ADR-RES ovarian) was 921 nM, the TGI (NCI/ADR-RES ovarian) was > 100000 nM and the GI50 (OVCAR-3 ovarian) was 349 nM. The TGI (OVCAR-3 ovarian) was > 100000 nM, the GI50 (OVCAR-4 ovarian) was 178 nM and the TGI (OVCAR-4 ovarian) was 2210 nM. For the same molecule, the GI50 (OVCAR-5 ovarian) was 718 nM, the TGI (OVCAR-5 ovarian) was > 100000 nM and the GI50 (OVCAR-8 ovarian) was 545 nM. The TGI (OVCAR-8 ovarian) was > 100000 nM, the GI50 (PC-3 prostate) was 253 nM and the TGI (PC-3 prostate) was > 100000 nM. It also gave a GI50 (RPMI-8226 leukemia) of 28.7 nM, a TGI (RPMI-8226 leukemia) of 198 nM and a GI50 (RXF 393 renal) of 198 nM. The TGI (RXF 393 renal) was 1580 nM, the GI50 (SF-268 CNS) was 1120 nM and the TGI (SF-268 CNS) was > 100000 nM. For the same molecule, the GI50 (SF-295 CNS) was 215 nM, the TGI (SF-295 CNS) was 1930 nM and the GI50 (SF-539 CNS) was 451 nM. The TGI (SF-539 CNS) was > 100000 nM, the GI50 (SK-MEL-2 melanoma) was 2120 nM and the TGI (SK-MEL-2 melanoma) was 9780 nM. The GI50 (SK-MEL-28 melanoma) was 446 nM, the TGI (SK-MEL-28 melanoma) was > 100000 nM and the GI50 (SK-MEL-5 melanoma) was 251 nM. The TGI (SK-MEL-5 melanoma) was 1530 nM, the GI50 (SN12C renal) was 347 nM and the TGI (SN12C renal) was > 100000 nM. For the same molecule, the GI50 (SNB-19 CNS) was 3030 nM, the TGI (SNB-19 CNS) was > 100000 nM and the GI50 (SNB-75 CNS) was 170 nM. For the same molecule, the TGI (SNB-75 CNS) was 873 nM, the GI50 (SW-620 colon) was 1510 nM and the TGI (SW-620 colon) was > 100000 nM. It also gave a GI50 (T-47D breast) of 104 nM, a TGI (T-47D breast) of 509 nM and a GI50 (TK-10 renal) of 384 nM. For the same molecule, the TGI (TK-10 renal) was 8800 nM, the GI50 (U251 glioblastoma) was 769 nM and the TGI (U251 glioblastoma) was > 100000 nM. For the same molecule, the GI50 (UACC-257 melanoma) was 1500 nM, the TGI (UACC-257 melanoma) was > 100000 nM and the GI50 (UACC-62 melanoma) was 389 nM. The TGI (UACC-62 melanoma) was 5930 nM, the GI50 (UO-31 renal) was 216 nM and the TGI (UO-31 renal) was 796 nM.
